Tested on: participants with SSc-RP
Assay: Scleroderma Health Assessment Questionnaire (SHAQ): disability indices and visual analog scales
Assay type: in vivo, human
Description: The standard, validated, patient reported outcome measures tool for SSc patients, the Scleroderma Health Assessment Questionnaire (SHAQ), will be used to assess the participant qualify of life. Details are attached in the Appendix. The participant quality of life will be scored, and a disability index calculated for each questionnaire completed by the patient at Screening and each in-clinic visit. The absolute change in participant quality of life from baseline to the end of each dosing period will be calculated similar to frequency data as before.
The SHAQ includes a Raynaud's VAS, which will be reported at screening and each in-clinic visit. The absolute change in Raynaud-VAS, assessed by the participants response to the SHAQ question ‘In the past 7 days, how much have your Raynaud's interfered with your daily activities?’ at baseline and the end of each dosing period will be calculated similar to frequency data as before.
The SHAQ is used to calculate a Disability Index to assess the participant qualify of life. The eight categories assessed by the Disability Index are 1) dressing and grooming, 2) arising, 3) eating, 4) walking, 5) hygiene, 6) reach, 7) grip, and 8) common daily activities. For each of these categories, patients report the amount of difficulty they have in performing two or three specific activities.
There are four possible responses for the Disability Index questions: • Without any difficulty=0 • With some difficulty=1 • With much difficulty=2 • Unable to do=3. • The highest score reported by the patient for any component question of the eight categories determines the score for that category. • If a component question is left blank or the response is too ambiguous to assign a score, then the score for that category is determined by the remaining completed question(s). • If all component questions are blank or if more than one answer is given, then follow up with the respondent is required. • If the respondent's mark is between the response columns, then move it to the closest one. If it's directly between the two, move it to the higher one.
Each of the disability items on the SHAQ has a companion aids/devices variable that is used to record what type(s) of assistance, if any, the participant uses for his/her usual activities. These variables (see below) are coded as follows: • 0=No assistance is needed. • 1=A special device is used by the patient in his/her usual activities. • 2=The patient usually needs help from another person. • 3=The patient usually needs BOTH a special device AND help from another person.
The scoring variables and scoring rules permit the computation of two disability indices, the Standard Disability Index and the Alternative Disability Index.
This question results in a new set of category scores that are computed by adjusting the score for each category, if necessary, based on the patient's use of an aid or device or assistance for that category. If either devices and/or help from another person are checked for a category, the score is set to “2”, unless the score is already “3” (i.e., scores of “0” or “1” are increased to “2”). For example, if the highest score for the dressing category is “1”, and the patient says they use a device for dressing, the computed category score would be “2”. The sum of the computed categories scores is then calculated and divided by the number of categories answered. This gives a score in the 0 to 3 range.
The aid and device variables are not used to calculate the alternative disability index; it is calculated by adding the scores for each of the categories and dividing by the number of categories answered. This gives a score in the 0 to 3 range.
The standard, validated, patient reported outcome measures tool for SSc patients, the SHAQ, was collected at the time points specified in the study schedules (FIG. 2 and FIGS. 4A and 4B) to assess the participant's quality of life. The SHAQ included a Raynaud's VAS that will also be reported separately.

[1] = Baseline, Cilnidipine 20 mg (N = 4), Patients with Diagnosis of SSc, PP Population Part A
[2] = Baseline, Pooled Cilnidipine 10 mg and Cilnidipine 10 mg + Tadalafil 5 mg (N = 9), PP Population Part A
[3] = Baseline, Pooled Cilnidipine 20 mg and Cilnidipine 20 mg + Tadalafil 5 mg (N = 8), PP Population Part A
[4] = Baseline, Pooled Cilnidipine (N = 8), PP Population Part A
[5] = Cilnidipine 10 mg (N = 3), patients with diagnosis of SSc, sensitivity analysis, Modified ITT, Part A
[6] = Cilnidipine 10 mg (N = 4), Modified ITT, Part A
[7] = Cilnidipine 10 mg, Day 12, PP Population Part A, SSc patients

COCCOC(=O)C1=C(C)NC(C)=C(C(=O)OC/C=C/c2ccccc2)C1c1cccc([N+](=O)[O-])c1 (stereo not shown) [Cilnidipine, cilnidipine]
SHAQ Standard Disability Index, Median (Baseline, Cilnidipine 10 mg (N = 4), Patients with Diagnosis of SSc, PP Population Part A): 0.563 | SHAQ Alternative Disability Index, Mean [1]: 0.219 | SHAQ Alternative Disability Index, Median [1]: 0.250 | SHAQ Standard Disability Index, Mean [1]: 0.344 | SHAQ Standard Disability Index, Median [1]: 0.375 | SHAQ Visual Analogue Scale - Breathing Problems, Mean [2]: 1.511 | SHAQ Visual Analogue Scale - Breathing Problems, Median [2]: 0.800 | SHAQ Visual Analogue Scale - Finger Ulcers, Mean [2]: 0.656 | SHAQ Visual Analogue Scale - Finger Ulcers, Median [2]: 0.200 | SHAQ Visual Analogue Scale - Intestinal Problems, Mean [2]: 2.444 | SHAQ Visual Analogue Scale - Intestinal Problems, Median [2]: 1.100 | SHAQ Visual Analogue Scale - Overall Disease Severity, Mean [2]: 3.044 | SHAQ Visual Analogue Scale - Overall Disease Severity, Median [2]: 1.900 | SHAQ Visual Analogue Scale - Pain, Mean [2]: 3.278 | SHAQ Visual Analogue Scale - Pain, Median [2]: 3.100 | SHAQ Visual Analogue Scale - Raynaud's, Mean [2]: 2.733 | SHAQ Visual Analogue Scale - Raynaud's, Median [2]: 1.400 | SHAQ Visual Analogue Scale - Breathing Problems, Mean [3]: 1.175 | SHAQ Visual Analogue Scale - Breathing Problems, Median [3]: 1.000 | SHAQ Visual Analogue Scale - Finger Ulcers, Mean [3]: 1.986 | SHAQ Visual Analogue Scale - Finger Ulcers, Median [3]: 0.100 | SHAQ Visual Analogue Scale - Intestinal Problems, Mean [3]: 0.813 | SHAQ Visual Analogue Scale - Intestinal Problems, Median [3]: 0.650 | SHAQ Visual Analogue Scale - Overall Disease Severity, Mean [3]: 3.363 | SHAQ Visual Analogue Scale - Overall Disease Severity, Median [3]: 2.950 | SHAQ Visual Analogue Scale - Pain, Mean [3]: 2.800 | SHAQ Visual Analogue Scale - Pain, Median [3]: 2.900 | SHAQ Visual Analogue Scale - Raynaud's, Mean [3]: 2.700 | SHAQ Visual Analogue Scale - Raynaud's, Median [3]: 1.700 | SHAQ Visual Analogue Scale - Breathing Problems, Mean [4]: 1.600 | SHAQ Visual Analogue Scale - Breathing Problems, Median [4]: 0.700 | SHAQ Visual Analogue Scale - Finger Ulcers, Mean [4]: 1.171 | SHAQ Visual Analogue Scale - Finger Ulcers, Median [4]: 0.300 | SHAQ Visual Analogue Scale - Intestinal Problems, Mean [4]: 1.838 | SHAQ Visual Analogue Scale - Intestinal Problems, Median [4]: 0.650 | SHAQ Visual Analogue Scale - Overall Disease Severity, Mean [4]: 2.925 | SHAQ Visual Analogue Scale - Overall Disease Severity, Median [4]: 2.950 | SHAQ Visual Analogue Scale - Pain, Mean [4]: 2.250 | SHAQ Visual Analogue Scale - Pain, Median [4]: 2.150 | SHAQ Visual Analogue Scale - Raynaud's, Mean [4]: 2.338 | SHAQ Visual Analogue Scale - Raynaud's, Median [4]: 1.800 | SHAQ Standard Disability Index: Baseline, Mean [5]: 0.875 | SHAQ Standard Disability Index: Baseline, Median [5]: 1.125 | SHAQ Standard Disability Index: Change from Baseline, Mean [5]: 0.000 | SHAQ Standard Disability Index: Change from Baseline, Median [5]: 0.000 | SHAQ Standard Disability Index: Day 12, Mean [5]: 0.875 | SHAQ Standard Disability Index: Day 12, Median [5]: 1.125 | SHAQ Standard Disability Index: Percent Change from Baseline, Mean [5]: 0.00% | SHAQ Standard Disability Index: Percent Change from Baseline, Median [5]: 0.00% | SHAQ Overall Severity: Baseline, Mean [6]: 2.725 | SHAQ Overall Severity: Baseline, Median [6]: 1.900 | SHAQ Overall Severity: Change from Baseline, Mean [6]: −0.900 | SHAQ Overall Severity: Change from Baseline, Median [6]: −0.950 | SHAQ Overall Severity: Day 12, Mean [6]: 1.825 | SHAQ Overall Severity: Day 12, Median [6]: 1.050 | SHAQ Overall Severity: Percent Change from Baseline, Mean [6]: −56.96% | SHAQ Overall Severity: Percent Change from Baseline, Median [6]: −44.12% | SHAQ Visual Analogue Scale - Breathing Problems, Change from Baseline, Mean [7]: −0.300 | SHAQ Visual Analogue Scale - Breathing Problems, Change from Baseline, Median [7]: 0.000 | SHAQ Visual Analogue Scale - Breathing Problems, Percent Change from Baseline, Mean [7]: −16.00% | SHAQ Visual Analogue Scale - Breathing Problems, Percent Change from Baseline, Median [7]: −16.00%

From patent US20240358693A1, “METHODS OF TREATING PAIN” (Aisa Pharma, Inc., priority 2023, published 2024)
